System: human immortalized podocytes inducibly expressing APOL1 G2
Assay: APOL1 G2 podocyte cell rescue assay (Example B4)
Format: cell-based
Conditions: Homo sapiens, differentiated human podocytes, doxycycline-induced APOL1 G2, CellTiter-Glo; geometric mean of at least 2 runs; † = single run
Procedure, shortened: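 Differentiated hTERT-immortalized podocytes (clone D10) with doxycycline-inducible C-terminally HiBiT-tagged APOL1 G2, 6,000 cells/well, treated with doxycycline plus 8-point 3-fold compound series (0.4% DMSO) for 95 h at 37 °C. Viability by CellTiter-Glo luminescence; EC50 as geometric mean of ≥2 runs, each in duplicate.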

SMILES	EC50 [nM]
C[C@]1(O)C[C@@H](n2nnc3cc(OCCN4CCC5(CC4)C(=O)Nc4ccc(C#N)cc45)cc(C(F)(F)F)c32)C1 [Compound 435, 2-oxo-1′-[2-({1-[(cis)-3-hydroxy-3-methylcyclobutyl]-7-(trifluoromethyl)-1H-1,2,3-benzotriazol-5-yl}oxy)ethyl]-1,2-dihydrospiro[indole-3,4′-piperidine]-5-carbonitrile]	2.94
C[C@]1(O)C[C@@H](n2cnc3cc(OCCN4CCC5(CC4)C(=O)Nc4ccc(Cl)cc45)cc(C#N)c32)C1 [Compound 439, 5-(2-{5-chloro-2-oxo-1,2-dihydrospiro[indole-3,4′-piperidin]-1′-yl}ethoxy)-1-[(cis)-3-hydroxy-3-methylcyclobutyl]-1H-1,3-benzodiazole-7-carbonitrile]	3.92
C[C@]1(O)C[C@@H](n2nnc3cc(OCCN4CCC5(CC4)C(=O)Nc4ccc(Cl)cc45)cnc32)C1 [Compound 440, 5-chloro-1′-[2-({3-[(cis)-3-hydroxy-3-methylcyclobutyl]-3H-[1,2,3]triazolo[4,5-b]pyridin-6-yl}oxy)ethyl]-1,2-dihydrospiro[indole-3,4′-piperidin]-2-one]	15
Cc1nc2cc(OCCN3CCC4(CC3)C(=O)Nc3ccc(Cl)cc34)cc(C(F)(F)F)c2n1[C@H]1C[C@@](C)(O)C1 [Compound 442, 5-chloro-1′-[2-({2-methyl-1-[(cis)-3-hydroxy-3-methylcyclobutyl]-7-(trifluoromethyl)-1H-1,3-benzodiazol-5-yl}oxy)ethyl]-1,2-dihydrospiro[indole-3,4′-piperidin]-2-one]	1.16
Cc1nc2cc(OCCN3CCC4(CC3)C(=O)Nc3ccc(C#N)cc34)cc(C(F)(F)F)c2n1[C@H]1C[C@@](C)(O)C1 [Compound 443, 1′-[2-({2-methyl-1-[(cis)-3-hydroxy-3-methylcyclobutyl]-7-(trifluoromethyl)-1H-1,3-benzodiazol-5-yl}oxy)ethyl]-2-oxo-1,2-dihydrospiro[indole-3,4′-piperidine]-5-carbonitrile]	2.5
C[C@]1(O)C[C@@H](n2cnc3cc(OCCN4CCC5(CC4)C(=O)Nc4ccc(C(F)F)cc45)cc(C(F)(F)F)c32)C1 [Compound 450, 5-(difluoromethyl)-1′-[2-({1-[(cis)-3-hydroxy-3-methylcyclobutyl]-7-(trifluoromethyl)-1H-1,3-benzodiazol-5-yl}oxy)ethyl]-1,2-dihydrospiro[indole-3,4′-piperidin]-2-one]	0.846
C[C@]1(O)C[C@@H](n2cnc3cc(OCCN4CCC5(CC4)C(=O)Nc4c(I)cc(Cl)cc45)cc(C(F)(F)F)c32)C1 [Compound 453, 5-chloro-7-iodo-1′-[2-({1-[(cis)-3-hydroxy-3-methylcyclobutyl]-7-(trifluoromethyl)-1H-1,3-benzodiazol-5-yl}oxy)ethyl]-1,2-dihydrospiro[indole-3,4′-piperidin]-2-one]	1.81
C[C@]1(O)C[C@@H](n2cnc3cc(OCCN4CCC5(CC4)C(=O)Nc4ccc(Cl)cc45)cc(F)c32)C1 [Compound 454, 5-chloro-1′-(2-((7-fluoro-1-((cis)-3-hydroxy-3-methylcyclobutyl)-1H-benzo[d]imidazol-5-yl)oxy)ethyl)spiro[indoline-3,4′-piperidin]-2-one]	4.34
C[C@]1(O)C[C@@H](n2ncc3cc(OCCN4CCC5(CC4)C(=O)Nc4ccc(Cl)cc45)cc(C(F)(F)F)c32)C1 [Compound 464, 5-chloro-1′-[2-({1-[(cis)-3-hydroxy-3-methylcyclobutyl]-7-(trifluoromethyl)-1H-indazol-5-yl}oxy)ethyl]-1,2-dihydrospiro[indole-3,4′-piperidin]-2-one]	0.659
C[C@]1(O)C[C@@H](n2ncc3cc(OCCN4CCC5(CC4)C(=O)Nc4ccc(C#N)cc45)cc(C(F)(F)F)c32)C1 [Compound 465, 2-oxo-1′-[2-({1-[(cis)-3-hydroxy-3-methylcyclobutyl]-7-(trifluoromethyl)-1H-indazol-5-yl}oxy)ethyl]-1,2-dihydrospiro[indole-3,4′-piperidine]-5-carbonitrile]	1.22
